Data as given in patent publication US9656981B2, “Peripherally-acting cannabinoid receptor agonists for chronic pain” (The Regents of the University of California, priority 2012, dated 2017).
Read-outs that look alike come from different tables or passages of the source.

Experiments:
human CB1R (hCB1R) = human CB1R (hCB1R) (Homo sapiens, UniProt P21554); assay: human CB1R (hCB1R) calcium flux assay; assay type: cell-based; details: Table 1; read-out: Ca Flux % Emax
Excerpt: Compounds were first screened for: a) CB1R and CB2R binding, b) CB1R agonist activity using the human CB1R (hCB1R) calcium flux assay, and c) BBB permeability using the Madin-Darby canine kidney (MDCK-MDR1) cell line assay.
The calcium 3 dye assays were run according to manufacturer's specifications (http://www.moleculardevices.com/Products/Assay-Kits/GPCRs/FLIPR-Calcium.html) and as reported in our previous publications^112,113. Briefly, wells of black clear-bottom 96-well tissue culture-treated plates are seeded with 20,000 cells the afternoon before assay. The day of assay, the cells are incubated with the Ca^2+ indicator dye for 1 hr @ 37° C. For antagonist assays, the test compound is preincubated with the cells during the last 10 min of the dye incubation. Basal or unstimulated fluorescence intensity is recorded in the FlexStation @ 37° C. for 13 sec followed by the addition of test compound or CP 55,940 (depending on the assay endpoint). Fluorescence intensity is recorded for an additional 47 sec. The effect of test compound in each well is determined by subtracting the minimum from the maximum fluorescence during the 47-sec recording period.

CB2R = CB2R (Homo sapiens, UniProt P34972); assay: CB2R radioligand displacement binding assay (CP55940 radioligand)
CB2R, sequence (P34972 whole entry): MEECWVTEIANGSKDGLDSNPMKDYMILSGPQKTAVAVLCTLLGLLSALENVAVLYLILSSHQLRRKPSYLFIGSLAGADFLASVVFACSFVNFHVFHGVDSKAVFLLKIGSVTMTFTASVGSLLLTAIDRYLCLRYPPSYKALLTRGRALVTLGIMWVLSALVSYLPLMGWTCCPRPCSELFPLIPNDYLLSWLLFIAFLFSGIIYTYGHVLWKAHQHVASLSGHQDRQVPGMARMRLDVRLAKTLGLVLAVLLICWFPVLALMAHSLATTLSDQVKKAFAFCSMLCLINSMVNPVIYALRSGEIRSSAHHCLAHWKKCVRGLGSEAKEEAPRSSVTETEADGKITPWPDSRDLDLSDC
Protocol: Detailed radioligand displacement assays (using the well-characterized CBR agonist […] as the radioligand) were conducted to determine the affinity (Ki) of the test compounds for CB1R and CB2R as has been previously described by our group^112,113. Heterologous competition binding assays were performed to calculate receptor affinities. Unlabeled SR141716 or SR144528 were used as appropriate controls for non-specific binding (NSB) in the assay. Calculation of the equilibrium dissociation constant (Ki) was performed using the Cheng-Prusoff equation.

CB1R = CB1R (Homo sapiens, UniProt P21554); assay: CB1R radioligand displacement binding assay (CP55940 radioligand)
CB1R, sequence (P21554 whole entry): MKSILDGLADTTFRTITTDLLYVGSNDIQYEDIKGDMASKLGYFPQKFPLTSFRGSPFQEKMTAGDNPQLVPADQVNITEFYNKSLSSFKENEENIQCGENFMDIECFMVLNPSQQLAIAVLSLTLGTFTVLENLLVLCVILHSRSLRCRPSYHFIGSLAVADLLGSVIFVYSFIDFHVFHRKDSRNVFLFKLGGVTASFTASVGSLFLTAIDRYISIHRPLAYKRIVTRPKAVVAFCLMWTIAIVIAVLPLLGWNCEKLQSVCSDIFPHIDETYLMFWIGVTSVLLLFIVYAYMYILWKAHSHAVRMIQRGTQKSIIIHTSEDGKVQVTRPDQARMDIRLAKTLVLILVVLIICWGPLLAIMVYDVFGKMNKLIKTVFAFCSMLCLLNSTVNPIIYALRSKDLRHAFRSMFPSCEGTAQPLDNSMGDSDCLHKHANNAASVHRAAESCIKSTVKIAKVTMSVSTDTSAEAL
Protocol: Heterologous competition binding assays were performed to calculate receptor affinities. Unlabeled SR141716 or SR144528 were used as appropriate controls for non-specific binding (NSB) in the assay. Calculation of the equilibrium dissociation constant (Ki) was performed using the Cheng-Prusoff equation.

rats [1] = assay: Hypothermia test of the tetrad; assay type: in vivo, rat
Protocol: Rats are acclimated to a plastic restrainer apparatus (Model RTV-180 Braintree Scientific Inc.) on the day of testing by placing them in the restrainer twice for 5 min separated by 20 min. Baseline core temperature is taken before treatment, and the rectal temperature is measured again at various times after injection of the CB1R ligands.

rats [2] = assay: Catalepsy (ring) test of the tetrad; assay type: in vivo, rat
Protocol: Catalepsy (ring) test. Catalepsy was determined with a ring immobility test^154, modified for rats^139, 153. Rats are placed with their forepaws on a horizontal metal ring (12 cm diameter) at a height that allows their hindpaws to just touch the bench surface. Immobility is recorded as the time for the rat to move off the ring with a 100 s cutoff. Rats are tested before vehicle/drug injections and again at various times after injection.

[3] = test system: CFA-induced heat hyperalgesia; assay: CFA chronic inflammation, heat hyperalgesia (Hargreaves); assay type: in vivo, rat; details: systemic injection
Protocol: The Hargreaves method was used to assess paw-withdrawal latency to a thermal nociceptive stimulus^175. Rats were acclimated (10 min) within Plexiglas enclosures (10×20×20 cm) on a clear glass plate preheated to 30° C. A radiant heat source (adjustable infrared lamp) and a timer were used to measure paw withdrawal latency (Model 390, IITC Instruments). Each paw was tested 4 times at 30% maximal intensity allowing 5 min between each test. […] Results of 4 tests were averaged for each paw for that session.

rats [4] = assay: Rotarod test of the tetrad; assay type: in vivo, rat
Protocol: Rats were tested for motor function and the ataxic effects of novel drugs as described previously^151-153. To determine drug effects on motor coordination, rats are trained 72 h before the test (3 sessions 24 h apart) to remain for at least 180 s on a rotarod revolving at an acceleration of 4-40 revs over 5 min). Rats are tested immediately before vehicle or drug injections and tested again at 2, 6, 24 and 48 hrs after injection. The time for which the rats are able to remain on the rotarod is recorded up to a cut-off of 5 min.

[5] = test system: CFA-induced mechanical allodynia; assay: CFA chronic inflammation, mechanical allodynia; assay type: in vivo, rat; details: systemic injection
Protocol: (§1) Rats are placed in a plastic-walled cage (10×20×13 cm) with a metal mesh floor (0.6×0.6 cm holes) and allowed to acclimate for 10 min. The amount of pressure (g) needed to evoke a hindpaw withdrawal response is measured 4 times on each paw separated by 30-s intervals using a von Frey-type digital meter (Model 1601C, IITC Instr.). Results of 4 tests/session are averaged for each paw.
Compounds were tested in a well-established model of chronic inflammation. In this model, unilateral intraplantar injection of complete Freund's adjuvant (CFA) leads to long-lasting symptoms of mechanical allodynia and thermal hyperalgesia of the affected hindpaw, which is alleviated by local, […] administration of CB1R ligands^125, 155. […] This is consistent with the higher CB1R affinity of our novel compound 13339-145-35 (Compound 9, see Table 1) compared with the AstraZeneca AZ11713908 compound^125.

rats [6] = assay: Tail-flick test of the tetrad; assay type: in vivo, rat; details: 0.3 mg/kg, intraperitoneal
Excerpt: A modified Hargreaves apparatus (Model 390, IITC Instr.) is used to measure tail-flick latency (TFL). Radiant heat is directed to a point 3 cm from the tail tip and the TFL observed and timed with a photo cell counter. The intensity of the radiant heat is adjusted for a baseline TFL of approximately 5-7 seconds for naïve rats, with a 25 s cutoff set to avoid tissue damage (see FIG. 3).

[7] = test system: sciatic nerve entrapment (SNE) neuropathy; assay: SNE neuropathy, mechanical allodynia (von Frey); assay type: in vivo, rat; details: 0.3 mg/kg; for effect on SNE-induced mechanical allodynia (ipsilateral hindpaw withdrawal thresholds): systemic injection
Protocol: The effectiveness of CBR agonists was tested for alleviating the painful symptoms of neuropathy induced by unilateral sciatic nerve entrapment (SNE)^131. The peripheral neuropathy induced by SNE is highly comparative to that of chronic constriction injury (CCI), which uses chromic gut suture materials instead of polyethylene cuffs^132. […] This increased excitability is at least in part attributable to injury-induced post-transcriptional transport of the voltage-gated sodium channel 1.8 (NaV1.8) mRNA, axonal accumulation of NaV1.8 mRNA, and its local protein translation leading to the increased NaV1.8 functional expression in injured nerve^136. The hyperexcitability and ectopic burst discharge of primary sensory neurons are widely considered to be the major contributors to pain symptomatology of peripheral neuropathy models. The SNE-induced mechanical allodynia effectively models the most common complaint of human neuropathy patients of dynamic mechanical allodynia. Behavioral measurements of mechanical sensitivity were conducted before and after induction of SNE as follows:
as §1

[8] = S9 fraction stability assay; assay type: in vitro ADME; details: rat liver S9, 10 μM
Protocol: Compounds are incubated at 10 μM in rat (male Sprague Dawley) liver S9 at 37° C. Each compound is prepared in ethanol at a concentration of 1 mM. An assay mixture containing S9 (1 mg protein/mL final concentration) and an NADPH regenerating system (NADP [1 mM final], glucose 6-phosphate [5 mM final] and glucose 6-phosphate dehydrogenase [1 U/mL final]) in a buffer consisting of 50 mM KPO4 phosphate buffer, pH 7.4 with 3 mM MgCl2 is prepared and preincubated at 37° C. for 5 min. A 10 μL volume of the 1 mM solution is added to 990 μL of assay mixture in a glass test tube @ 37° C. to initiate the assay. Samples (50 μL) are removed at 0, 15, 30, 60 and 120 min and immediately extracted with 3 volumes (150 μL) of methanol, centrifuged to pellet protein and supernatants transferred to LC/MS vials for analysis.

Plasma stability assay = assay type: in vitro ADME; details: rat plasma, 10 μM
Protocol: Compounds are incubated at 10 μM in rat plasma at 37° C. A solution of each compound is prepared in ethanol at a concentration of 1 mM. A 2.5 μL volume of the 1 mM solution is added to 247.5 μL of rat plasma (male Sprague Dawley) in a glass test tube in a 37° C. water bath. Samples (50 μL) are removed at 0, 30 and 60 min and immediately extracted with 3 volumes (150 μL) of methanol. Samples are centrifuged (2500 rpm for 10 min at 4° C.) to pellet protein and supernatants transferred to LC/MS vials for analysis. Samples are stored at −80° C. prior to analysis.

rats [9] = assay: Tetrad assays overall (CNS-mediated side effects); assay type: in vivo, rat; details: doses effective against neuropathy symptoms, i.p.
Excerpt: The CNS-mediated psychotropic actions of CB1R ligands represent their most troubling side effects. The cannabinoid agonists such as Δ9-THC or anandamide produce a complex pattern of behavioral effects which are unique to this class of compounds: at low doses a mixture of stimulatory and depressant effects is observed, while at higher doses central depression predominates^137,138. The tetrad of tests which is classically predictive of cannabinoid receptor activation includes: catalepsy, motor performance, hypothermia, and analgesia tests^139-141. Effects observed in all four tests have been thought to be mediated by the activation of central CBRs, but it is now well established that peripheral CBRs make a major contribution to the analgesic effects of cannabinoids^142-144. The catalepsy and motor deficits induced by CB1R ligands are likely produced by their action on CB1Rs within the basal ganglia and cerebellum, while hypothermia is thought to be mediated mainly through hypothalamic and brainstem CB1Rs^137, 145-150. […] Therefore, “tetrad” tests were used to determine whether the novel CB1R ligands have antinociceptive effects and side-effect profile consistent with the activation of central CB1Rs. […]

[10] = Table 1, CP55940 radioligand, read-out: CB2_KI_CP
[11] = Table 1, CP55940 radioligand, read-out: CB1_KI_CP

human CB1R (hCB1R), sequence (P21554 whole entry): as above

| Structure (SMILES) | Emax (human CB1R (hCB1R)) [%] | Ki (CB2R; [10]) [nM] | Ki (CB1R) [nM] | Ki (CB1R; [11]) [nM] | Hypothermia % change from predrug (0.3 mg/kg) at 2-3 hr (rats [1]) [%] | Catalepsy % change from pre-drug (0.3 mg/kg) at 1-3 hrs (rats [2]) [%] | Rotarod % change from pre-drug (0.3 mg/kg) at 2-3 hr (rats [4]) [%] | effect on SNE-induced mechanical allodynia (ipsilateral hindpaw withdrawal thresholds) [7] | SNE Neuropath Assay-% return to pre-drug (0.3 mg/kg) contralateal threshold at 2-3 h [7] [%] | S9% remaining @ xy min ([8]; 30 min) | also measured |
| --- | --- | --- | --- | --- | --- | --- | --- | --- | --- | --- | --- |
| CCc1ccc(/C=C2\C=C(CCN3CCOCC3)c3ccccc32)c2ccccc12 [Compound 8, 4-{2-[(1E)-1-[(4-ethylnaphthalen-1-yl)methylidene]-1H-inden-3-yl]ethyl} morpholine] | 121 | 0.79 | 1 | 0.86 |  |  |  |  |  |  |  |
| COc1ccc(/C=C2\C=C(CCN3CCOCC3)c3ccccc32)c2ccccc12 [Compound 10, 4-{2-[(1E)-2-[(4-methoxy-naphthalen-1-yl)methylidene]-1H-inden-3-yl]ethyl} morpholine] | 114 |  | 2.4 | 2.43 | 0 | 0 | 0 | anti-allodynic effects | 103.2 |  | effect in the hypothermia assay (rats [1]; 0.3 mg/kg, intraperitoneal): small difference; Ki (CB2R): 4.17 nM; effect on CFA-induced heat hyperalgesia [3]: robust relief; effect on CFA-induced mechanical allodynia [5]: relatively small effect; effect in the tail-flick assay (rats [6]): small, but significant effects |
| C1=C(CCN2CCOCC2)c2ccccc2/C1=C/c1cccc2ccccc12 [Compound 11, 4-{2-[(1E)-1-(naphthalen-1-ylmethylidene)-1H-inden-3-yl]ethyl} morpholine] | 103 | 5.62 |  |  | 0 | 0 | 0 | anti-allodynic effects | 37.8 | 35 @ 30% | effect in the catalepsy assay (rats [2]; 0.3 mg/kg, intraperitoneal): complete lack of effects; Ki (CB1R; read-out: CB1R binding affinity (Ki)): 4.69 nM; Plasma % remaining @ xy min (Plasma stability assay; 30 min): 95 @ 30%; effect in the rotarod assay (rats [4]; 0.3 mg/kg, intraperitoneal): complete lack of effects; effect on contralateral hindpaw withdrawal thresholds ([7]; hindpaw contralateral to SNE): Neither ENMI nor 13339-135-25 had any significant effect |
| CCCCCn1cc(C(=O)c2cccc3ccccc23)c2cccc(F)c21 [Compound 65, 7-fluoro-3-(naphthalene-1-carbonyl)-1-pentyl-1H-indole] | 79 | 2.7 |  | 3.62 | 0 | 0 | 0 |  | 18.6 | ~58% | S9% remaining @ xy min ([8]; 60 min): 50%; S9% remaining @ xy min ([8]; 120 min): 36%; Plasma % remaining @ xy min (Plasma stability assay; 60 min): 97 @ 60% |
| CCCCCCC(C)(C)c1cc(O)c2c(c1)OC(C)(C)[C@@H]1CC=C(CO)C[C@@H]21 [HU-210] |  |  |  |  |  |  |  |  |  |  | CNS side effects in the tetrad assays (rats [9]): potent CNS side effects |
